Data published in US4870002A, “Method of prevention of oxidative injury to cells” (priority 1985, dated 1989).
Where two headings read alike, the source gives them in different places.

How the values were obtained:
porcine RBCs = experiment: Nonspecific binding of Lu-BSA to porcine RBCs (base-activated chemiluminescence); assay type: cell-based, pig; details: for activation at 1490 µM / inhibition at 1490 µM: Sus scrofa; for activation at 1490 µM: read-out: Percent difference from control
Experimental: Blood was collected from Landrace-Duroc swine from a closed herd. Pigs from this herd had previously expressed episodes of porcine stress syndrome (malignant hyperthermia) following halothane anesthesia. The blood was collected into acidic citrated dextrose solution in standard blood bags. The blood was diluted 1:10 in phosphate (0.1M) buffered saline (PBS), pH 7.4, in 10 ml aliquots, centrifuged in a clinical centrifuge, and the erythrocytes were resuspended in fresh PBS. The cells were stored at 4° C. until used in the various assays. The post-collection chronological age of the RBCs used for a particular assay is noted in the results for each assay. The cells were counted in an automated cell counter (Coulter ZBI, Coulter Electronics, Inc., Hialeah, Fla. 33010). Nonspecific binding of Lu-BSA to porcine RBCs was measured following treatment with hydrogen peroxide, pyruvate, and/or 3-amino-L-tyrosine at 4°, 37°, or 45° C. The exposure times for those agents were 15 min, 30 min, or 72 hours. The reagents were removed by centrifugation. Three binding protocols were followed: (1) 0.25 ml of 1:20 RBCs (19 days post collection) were incubated with 0.25 ml of 1 mg/ml Lu-BSA in PBS, pH 6.9, for 30 min at 37° C. and washed (Table 1); (2) 0.05 ml of packed RBCs (less than 24 hours post collection) were resuspended in 0.2 ml of the Lu-BSA solution and incubated overnight at 4° C. […] The cells in all three protocols were washed once in PBS, pH 7.4, and resuspended in PBS to final dilutions of 1:20 for (1) and 1:30 for (2) and (3). Following this preparation, 100 μl of each cell suspension were added to 500 μl of PBS, pH 7.4, in a scintillation vial. The vial was placed in the photometer and the solution was activated by the addition of 100 μl 0.1N NaOH. The settings for the photometer were as previously described for the Con A-Lu-BSA.

[1] = system: human KBE epidermoid carcinoma cells; experiment: Survival after gamma irradiation by colony formation; assay type: cell-based; details: for radioprotection, in words: low dose
Experimental: In those experiments performed with media containing phenol red, this medium was replaced (in
each flask) with 10 ml of fresh medium; the flasks were then reincubated at 37° C. for 1 hour. After this time, under yellow light, 0.05 ml aliquots of distilled water or solutions of 3-aminotyrosine were injected to give 1:200 dilutions. […] Flasks were irradiated at 0, 250, 500, or 1000 rads at room temperature as previously described. Efforts were made to keep light exposure to a minimum. For those flasks irradiated for 8 min (10 Gy), the temperature in the flasks would decrease during that interval to 30° C.
Immediately after the irradiations were complete, the attached cells were washed two times with Saline A salt solution, the trypsinized using standard procedures with 1.5 ml of trypsin-EDTA (GIBCO 610-5300). The cells were declumped after inactivation of the trypsin with fresh medium, and the cell density determined by Coulter counter. Cell dilutions of appropriate densities were made with fresh medium in sterile plastic conical centrifuge tubes, and 5 ml aliquots were seeded at two different dilutions for each treatment flask into fresh T-25 flasks (4 replicate flasks at each cell dilution). The flasks were all incubated for 7 days, at which time the old medium was aspirated and the cells were fixed in situ with 100% methanol. The colonies were then stained with 0.3% methylene blue, and rinsed with distilled water. After air drying, colonies greater than 1 mm in diameter were scored as viable colonies. The cloning efficiency in each flask was determined as described for the L5178Y cells above.
In one experiment, treatment with 3-aminotyrosine was performed using custom formulated Earle's BME medium without phenol red (GIBCO 85-0078). Prior to addition of 3-aminotyrosine, cells were washed free of the standard growth medium using Saline A without phenol red.

[2] = system: T cell (spleen) peroxidase; experiment: Inhibition of T cell (spleen) peroxidase activity; assay type: biochemical
[3] = Autoxidation of 3-amino-L-tyrosine solutions; assay type: physicochemical; details: solutions yellow with age
Text: The binding of 3-amino-L-tyrosine to the cell membrane via its alpha amino group, and the subsequent inhibition of CL by inhibiting the binding of Lu-BSA, is unlikely. […] The subsequent washing removes loosely bound 3-amino-L-tyrosine and the addition of the Lu-BSA at pH 6.9 favors BSA binding by the Schiff base reaction. […] The yellowing of 3-amino-L-tyrosine solutions with age is evidence of the oxidation.

[4] = 1.49 mM preincubation and pyruvate 1.33 mM

Nc1cc(C[C@H](N)C(=O)O)ccc1O [3-aminotyrosine, 3-amino-L-tyrosine]
CL (counts/30 s) (porcine RBCs; [4]): 964 ± 230 counts/30 s
Percent difference from control (porcine RBCs; [4]): 9%
Lu-BSA binding above the 37° C. control (porcine RBCs; 1.49 mM with hydrogen peroxide 11.7 mM, 37° C.): ≤ 14%
CL (30 s) (porcine RBCs; 1.49 mM with hydrogen peroxide 11.7 mM, 37° C., 30 min): 663 ± 145 counts/30 s
Percent difference from control (porcine RBCs; 1.49 mM with hydrogen peroxide 11.7 mM, 37° C., 30 min, vs 4° C. control): 74%
CL (30 s) (porcine RBCs; 1.49 mM, 45° C., 30 min): 550 ± 126 counts/30 s
CL (counts/30 s) (porcine RBCs; 1.49 mM, preincubated at 4° C. for 72 h, RBCs 72 hours post collection): 794 ± 156 counts/30 s
activation at 1490 µM (porcine RBCs; 0.5 h, 1.49 mM, 45° C., 30 min, vs 4° C. control): 45%
activation at 1490 µM (porcine RBCs; 72 h, 1.49 mM, preincubated at 4° C. for 72 h): -10%
inhibition at 1490 µM (porcine RBCs; 1.49 mM, hydrogen peroxide 11.7 mM, 37° C., read-out: inhibition of Lu-BSA binding induced by hydrogen peroxide): 51%
inhibition at 1490 µM (porcine RBCs; RBCs stored at 4° C. in 1.49 mM for 72 hours, read-out: less Lu-BSA bound than RBCs stored in PBS): 10%
protection from the effects of pyruvate (Lu-BSA binding), in words (porcine RBCs; cells preincubated in 1.49 mM, then pyruvate 1.33 mM): protected them from the effects of pyruvate
Ratio of Percent Survival, 3-Aminotyrosine/Control ([1]; Twenty-Four Hour Incubation (No Phenol Red), 250 rads, 2 micromoles/ml): 1.08
Ratio of Percent Survival, 3-Aminotyrosine/Control ([1]; Twenty-Four Hour Incubation (No Phenol Red), 250 rads, 100 nanomoles/ml): 0.79
Ratio of Percent Survival, 3-Aminotyrosine/Control ([1]; Twenty-Four Hour Incubation (No Phenol Red), 500 rads, 2 micromoles/ml): 1.49
Ratio of Percent Survival, 3-Aminotyrosine/Control ([1]; Twenty-Four Hour Incubation (No Phenol Red), 500 rads, 100 nanomoles/ml): 0.48
Ratio of Percent Survival, 3-Aminotyrosine/Control ([1]; Twenty-Four Hour Incubation (No Phenol Red), 1000 rads, 2 micromoles/ml): 2.61
Ratio of Percent Survival, 3-Aminotyrosine/Control ([1]; Twenty-Four Hour Incubation (No Phenol Red), 1000 rads, 100 nanomoles/ml): 2.32
Ratio of Percent Survival, 3-Aminotyrosine/Control ([1]; Twenty-Four Hour Incubation (Phenol Red Present), 250 rads, 2 micromoles/ml): 1.28
Ratio of Percent Survival, 3-Aminotyrosine/Control ([1]; Twenty-Four Hour Incubation (Phenol Red Present), 250 rads, 100 nanomoles/ml): 1.53
Ratio of Percent Survival, 3-Aminotyrosine/Control ([1]; Twenty-Four Hour Incubation (Phenol Red Present), 500 rads, 2 micromoles/ml): 2.91
Ratio of Percent Survival, 3-Aminotyrosine/Control ([1]; Twenty-Four Hour Incubation (Phenol Red Present), 500 rads, 100 nanomoles/ml): 1.36
Ratio of Percent Survival, 3-Aminotyrosine/Control ([1]; Twenty-Four Hour Incubation (Phenol Red Present), 1000 rads, 2 micromoles/ml): 4.65
Ratio of Percent Survival, 3-Aminotyrosine/Control ([1]; Twenty-Four Hour Incubation (Phenol Red Present), 1000 rads, 100 nanomoles/ml): 1.63
Ratio of Percent Survival, 3-Aminotyrosine/Control ([1]; Zero hour incubation, 250 rads, 2 micromoles/ml): 1.70
Ratio of Percent Survival, 3-Aminotyrosine/Control ([1]; Zero hour incubation, 250 rads, 100 nanomoles/ml): 0.94
Ratio of Percent Survival, 3-Aminotyrosine/Control ([1]; Zero hour incubation, 500 rads, 2 micromoles/ml): 1.25
Ratio of Percent Survival, 3-Aminotyrosine/Control ([1]; Zero hour incubation, 500 rads, 100 nanomoles/ml): 0.81
Ratio of Percent Survival, 3-Aminotyrosine/Control ([1]; Zero hour incubation, 1000 rads, 2 micromoles/ml): 2.26
Ratio of Percent Survival, 3-Aminotyrosine/Control ([1]; Zero hour incubation, 1000 rads, 100 nanomoles/ml): 0.99
effect on survival after irradiation, in words ([1]; high concentration, added 24 hours prior to exposure, medium containing phenol red): radioprotective effect
radioprotection, in words ([1]; 10 minute preincubations (0 hours)): no radioprotection
radioprotection, in words ([1]; pre-incubation for 24 hours): low-dose radioprotection
effect on T cell (spleen) peroxidase activity, in words [2]: inhibit
autoxidation in solution, in words [3]: readily, autoxidizes
